Data set [1] in a line: Metabolic stability in human liver microsomes at 1 uM in presence of NADPH generating system by LC/MS/MS analysis. In kind it is ADME, Microsome. Conditions: read-out: Stability. Background: Liver microsomes are vesicles of endoplasmic reticulum, rich in cytochrome P450 enzymes.
Another data set relates to KARPAS-422. Description: Antiproliferative activity against human KARPAS-422 cells assessed as cell growth inhibition incubated for 72 hrs followed by compound dilution in growth medium and measured after 96 hrs by Alamar blue assay. In kind it is functional, cell-based. For orientation: Alamar Blue is a resazurin reagent that responds to reducing activity.
In another data set the test system is MDR1. Kind of data set: Efflux ratio of apparent permeability across basolateral to apical side over apical to basolateral side in MDCK-MDR1 cells at 1 to 10 uM measured after 1 hrs by LC/MS/MS analysis. In kind it is ADME, cell-based, Canis lupus familiaris. Conditions: dog, dose 1-10 µM.
For data set [2], the target named is T1, Histone-lysine N-methyltransferase EZH2 (Homo sapiens, UniProt Q15910). Description: Inhibition of EZH2 (unknown origin) using 3H-SAM as substrate incubated for 1 hour by filter binding method.
Data set [3] is described as follows: Ratio of unbound drug concentration in brain to blood in Sprague-Dawley rat at 1 mg/kg, iv measured after 15 mins by LC/MS/MS analysis. The class given is ADME, organism-based. Conditions: read-out: K(p,uu,brain).
In data set [4] the target is T1, Histone-lysine N-methyltransferase EZH2. Description: Inhibition of EZH2 in HEK293T cells assessed as H3K27me3 levels incubated for 48 hrs by flow cytometry. In kind it is cell-based. (Flow cytometry measures light scatter and fluorescence of single cells or particles in a stream.)
Data set [5] in a line: Apparent permeability across apical to basolateral side in MDCK-MDR1 cells at 1 to 10 uM measured after 1 hrs by LC/MS/MS analysis. The class given is ADME, cell-based, Canis lupus familiaris. Conditions: dog, dose 1-10 µM.
A short description of data set [6]: Metabolic stability in mouse liver microsomes at 1 uM in presence of NADPH generating system by LC/MS/MS analysis. In kind it is ADME, Microsome. The settings on record: read-out: Stability.

Molecules are shown by their SMILES. Where only a bound is given, the exact number is not on record here.

T1 sequence (Q15910 whole entry): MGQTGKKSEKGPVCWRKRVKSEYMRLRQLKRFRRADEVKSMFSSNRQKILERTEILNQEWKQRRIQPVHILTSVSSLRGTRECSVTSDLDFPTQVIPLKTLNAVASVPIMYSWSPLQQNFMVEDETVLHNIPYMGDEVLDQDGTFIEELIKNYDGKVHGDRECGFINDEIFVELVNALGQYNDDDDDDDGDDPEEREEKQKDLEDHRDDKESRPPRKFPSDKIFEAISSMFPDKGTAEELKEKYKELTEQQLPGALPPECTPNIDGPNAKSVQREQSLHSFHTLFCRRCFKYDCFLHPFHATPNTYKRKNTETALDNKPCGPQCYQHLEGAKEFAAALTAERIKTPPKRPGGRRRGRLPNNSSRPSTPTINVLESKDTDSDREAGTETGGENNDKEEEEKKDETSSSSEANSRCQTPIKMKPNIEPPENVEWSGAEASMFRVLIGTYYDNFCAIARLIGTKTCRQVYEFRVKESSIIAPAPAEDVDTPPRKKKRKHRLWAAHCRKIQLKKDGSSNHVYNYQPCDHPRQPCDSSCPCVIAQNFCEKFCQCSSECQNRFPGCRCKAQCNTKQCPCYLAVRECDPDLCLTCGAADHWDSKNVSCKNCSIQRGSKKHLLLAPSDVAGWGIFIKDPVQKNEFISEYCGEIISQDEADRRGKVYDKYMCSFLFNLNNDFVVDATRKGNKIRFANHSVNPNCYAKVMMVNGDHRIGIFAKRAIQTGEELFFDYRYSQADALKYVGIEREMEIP

Turning to `Cc1cc(C)c(CN2CCc3c(Cl)cc(-c4c(C)noc4C)c(Cl)c3C2=O)c(=O)[nH]1`, the microsomal CLint at 1 µM in data set [1] came out at 210 µL/min/mg; in data set [6] it was 253 µL/min/mg. Further, the results for the IC50 (with KARPAS-422; in data set [2]; in data set [4]) were 0.122 µM, 0.001 µM and 0.016 µM, respectively. The efflux ratio at 1 h, up to 10 µM in the data set on MDR1 worked out at 4.8. The Kp uu at 0.25 h in data set [3] is less than 0.003. Also, the Papp A→B at 1 h, up to 10 µM in data set [5] came out at 3.7 ×10⁻⁶ cm/s.

With `COc1cc(C)[nH]c(=O)c1CN1CCN(C)c2c(Cl)cc(-c3ccc(Cl)cc3F)c(Cl)c2C1=O`, the microsomal CLint at 1 µM was 97 µL/min/mg in data set [1] and 297 µL/min/mg in data set [6]. The molecule further gave an IC50 in data set [2] of 0.0721 µM.

Take `CCc1cc(C)[nH]c(=O)c1CN1CCN(C)c2c(Cl)cc(-c3c(C)noc3C)c(Cl)c2C1=O`: the efflux ratio at 1 h, up to 10 µM in the data set on MDR1 was greater than 170. Moreover, the IC50 in data set [2] worked out at 0.0018 µM. Moreover, the Papp A→B at 1 h, up to 10 µM in data set [5] is less than 0.1 ×10⁻⁶ cm/s.

Regarding `COc1cc(C)[nH]c(=O)c1CN1CCN(C)c2c(Cl)cc(OC(C)C)c(Cl)c2C1=O`, the microsomal CLint at 1 µM in data set [1] was 29 µL/min/mg; in data set [6], greater than 768 µL/min/mg. For the same molecule, the IC50 in data set [2] turned out to be 0.0334 µM.

`COc1cc(C)n(C)c(=O)c1CN1CCN(C)c2c(Cl)cc(-c3c(C)noc3C)c(Cl)c2C1=O` had an IC50 in data set [2] of 0.541 µM.

`CCN(c1cc(Cl)c2c(c1Cl)C(=O)N(Cc1c(OC)cc(C)[nH]c1=O)CCN2C)C1CCOCC1`: the microsomal CLint at 1 µM in data set [1] was 181 µL/min/mg; in data set [6], greater than 768 µL/min/mg. For the same molecule, the IC50 in data set [2] was 0.0019 µM.

For `Cc1cc(C)n(C)c(=O)c1CN1CCc2c(Cl)cc(-c3c(C)noc3C)c(Cl)c2C1=O`, the microsomal CLint at 1 µM is 449 µL/min/mg in data set [1] and greater than 768 µL/min/mg in data set [6]. Besides, in the data set with KARPAS-422, the IC50 was 4.68 µM. Also, in data set [3], the Kp uu at 0.25 h was determined as 0.29. In data set [5], the Papp A→B at 1 h, up to 10 µM was found to be 10.5 ×10⁻⁶ cm/s.

On to `COc1cc(C)[nH]c(=O)c1CN1CCN(C)c2ccc(-c3c(C)noc3C)c(Cl)c2C1=O`, for which the microsomal CLint at 1 µM in data set [1] came to 9 µL/min/mg. The IC50 in data set [2] came out at 0.0029 µM. In addition, the Papp A→B at 1 h, up to 10 µM in data set [5] was less than 0.1 ×10⁻⁶ cm/s.

On to `COc1cc(C)[nH]c(=O)c1CN1CCN(C)c2c(Cl)cc(-c3ccc(CN4CCOCC4)cc3)c(Cl)c2C1=O`, for which the microsomal CLint at 1 µM in data set [1] and in data set [6] was 41 µL/min/mg in each case. The molecule further yielded an IC50 in data set [2] of 0.22 µM.

On to `CSc1cc(C)n(C)c(=O)c1CN1CCN(C)c2c(Cl)cc(-c3c(C)noc3C)c(Cl)c2C1=O`, for which the IC50 in the data set with KARPAS-422 was 10.4 µM; in data set [2], 0.0114 µM. Besides, in the data set with MDR1, the efflux ratio at 1 h, up to 10 µM amounted to 110. Further, the apparent permeability from apical to basolateral (Papp A→B) at 1 h, up to 10 µM in data set [5] was 0.2 ×10⁻⁶ cm/s.

Regarding `Cc1noc(C)c1-c1cc(Cl)c2c(c1Cl)C(=O)N(Cc1c(C3CC3)cc(C)n(C)c1=O)CC2`, the microsomal CLint at 1 µM in data set [1] was 490 µL/min/mg; in data set [6] it was greater than 768 µL/min/mg. Besides, the efflux ratio at 1 h, up to 10 µM in the data set on MDR1 turned out to be 1.5. The IC50 in data set [2] was determined as 0.302 µM. Moreover, in data set [5], the Papp A→B at 1 h, up to 10 µM was 5.2 ×10⁻⁶ cm/s.

Regarding `COc1cc(C)n(C)c(=O)c1CN1CCc2c(Cl)cc(-c3c(C)noc3C)c(Cl)c2C1=O`, the microsomal CLint at 1 µM in data set [1] is 117 µL/min/mg; in data set [6], 656 µL/min/mg. The IC50 in the data set with KARPAS-422 was found to be 2.95 µM; in data set [2], 0.0116 µM. Besides, the efflux ratio at 1 h, up to 10 µM with MDR1 was found to be 23. In addition, in data set [5], the Papp A→B at 1 h, up to 10 µM amounted to 1 ×10⁻⁶ cm/s.

In turn, `CCN1CCN(Cc2c(OC)cc(C)[nH]c2=O)C(=O)c2c(Cl)c(-c3c(C)noc3C)cc(Cl)c21` registered an IC50 in data set [2] of 0.0334 µM.

As for `COc1cc(C)[nH]c(=O)c1CN1CCN(C)c2c(Cl)cc(-c3c(C)noc3C)c(Cl)c2C1=O`, the microsomal CLint at 1 µM stood at 80 µL/min/mg in data set [1] and 112 µL/min/mg in data set [6]. Besides, the figures for the IC50 (in the data set with KARPAS-422; in data set [2]; in data set [4]) were 0.245 µM, 0.00087 µM and 0.208 µM, respectively. In the data set on MDR1, the efflux ratio at 1 h, up to 10 µM is greater than 49. Also, the Papp A→B at 1 h, up to 10 µM in data set [5] is less than 0.1 ×10⁻⁶ cm/s.

With `CSc1cc(C)[nH]c(=O)c1CN1CCN(C)c2c(Cl)cc(-c3c(C)noc3C)c(Cl)c2C1=O`, the figures for the 50% inhibitory concentration (IC50) (in the data set on KARPAS-422; in data set [2]) were 0.125 µM and 0.0009 µM, respectively. Also, the efflux ratio at 1 h, up to 10 µM in the data set with MDR1 is greater than 99. For the same molecule, the Papp A→B at 1 h, up to 10 µM in data set [5] was less than 0.1 ×10⁻⁶ cm/s.

On to `COc1cc(C)[nH]c(=O)c1CN1CCNc2c(Cl)cc(-c3c(C)noc3C)c(Cl)c2C1=O`, for which the microsomal CLint at 1 µM is 79 µL/min/mg in data set [1] and 123 µL/min/mg in data set [6]. The IC50 stood at 0.065 µM in the data set with KARPAS-422, 0.00035 µM in data set [2] and 0.017 µM in data set [4]. Further, the efflux ratio at 1 h, up to 10 µM in the data set on MDR1 is greater than 51. Moreover, the Papp A→B at 1 h, up to 10 µM in data set [5] was less than 0.1 ×10⁻⁶ cm/s.

As for `CSc1cc(C)n(C)c(=O)c1CN1CCc2c(Cl)cc(-c3c(C)noc3C)c(Cl)c2C1=O`, the microsomal CLint at 1 µM in data set [1] worked out at 235 µL/min/mg; in data set [6], 796 µL/min/mg. Besides, the IC50 in the data set with KARPAS-422 amounted to 0.632 µM; in data set [2], 0.0013 µM. In addition, the efflux ratio at 1 h, up to 10 µM in the data set with MDR1 was found to be 110. Moreover, the Papp A→B at 1 h, up to 10 µM in data set [5] is 0.3 ×10⁻⁶ cm/s.

With `CSc1cc(C)n(C)c(=O)c1CN1CCNc2c(Cl)cc(-c3c(C)noc3C)c(Cl)c2C1=O`, the IC50 was found to be 1.32 µM in the data set on KARPAS-422 and 0.0021 µM in data set [2]. Moreover, the efflux ratio at 1 h, up to 10 µM in the data set on MDR1 amounted to 220. The Papp A→B at 1 h, up to 10 µM in data set [5] came out at 0.2 ×10⁻⁶ cm/s.

Regarding `COc1cc(C)[nH]c(=O)c1CN1CCN(C)c2c(Cl)cc(C(O)C3CCOCC3)c(Cl)c2C1=O` (stereo not given), the results for the microsomal CLint at 1 µM in data set [1] and in data set [6] were 34 µL/min/mg and 91 µL/min/mg, respectively. In data set [2], the IC50 was 0.0094 µM.

As for `CCc1cc(C)n(C)c(=O)c1CN1CCc2c(Cl)cc(-c3c(C)noc3C)c(Cl)c2C1=O`, the microsomal CLint at 1 µM in data set [1] and in data set [6] was greater than 768 µL/min/mg in each case. For the same molecule, in the data set with MDR1, the efflux ratio at 1 h, up to 10 µM was 0.72. In data set [2], this molecule registered an IC50 of 0.082 µM. Moreover, in data set [5], the Papp A→B at 1 h, up to 10 µM turned out to be 11 ×10⁻⁶ cm/s.

Regarding `COc1cc(C)[nH]c(=O)c1CN1CCN(C)c2c(Cl)cc(-c3ccc(N4CCOCC4)cc3)c(Cl)c2C1=O`, the figures for the microsomal CLint at 1 µM in data set [1] and in data set [6] were 7 µL/min/mg and 8 µL/min/mg, respectively. Also, in data set [2], the IC50 came to 0.0648 µM.

Turning to `COc1cc(C)[nH]c(=O)c1CN1CCN(C)c2c(Cl)cc(C(C)C3CCOCC3)c(Cl)c2C1=O` (stereo not given), the microsomal CLint at 1 µM in data set [1] came to 206 µL/min/mg; in data set [6], 562 µL/min/mg. In data set [2], this molecule displayed an IC50 of 0.002 µM.

With `Cc1noc(C)c1-c1cc(Cl)c2c(c1Cl)C(=O)N(Cc1c(C(F)(F)F)cc(C)n(C)c1=O)CC2`, the microsomal CLint at 1 µM in data set [1] came out at 287 µL/min/mg; in data set [6], 592 µL/min/mg. Moreover, the efflux ratio at 1 h, up to 10 µM with MDR1 is 2.4. The IC50 in data set [2] is greater than 1 µM. The Papp A→B at 1 h, up to 10 µM in data set [5] turned out to be 4.9 ×10⁻⁶ cm/s.

A word on the IC50: it is the concentration needed to halve the response being measured. As a reminder, the efflux ratio is the permeability from basolateral to apical divided by that in the opposite direction, in the common usage. The term Papp A→B denotes how fast a substance crosses the layer from the apical side.

The record behind these values is ChEMBL document CHEMBL5046305, “A Chemical Strategy toward Novel Brain-Penetrant EZH2 Inhibitors” (ACS Med Chem Lett, 2022).
